From ChEMBL document CHEMBL1136705, “Analogues of dealanylalahopcin are inhibitors of human HIF prolyl hydroxylases” (Bioorg Med Chem Lett, 2003) come the findings set out here.

This test deals with Prolyl hydroxylase EGLN2 (Homo sapiens, UniProt Q96KS0). Put plainly: Inhibitory activity against purified fusion of maltose binding with PHD1 as enzyme and […].

pIC50: −log10 of the molar value.

Sequence of Prolyl hydroxylase EGLN2 (Q96KS0 whole entry, the tested form may be a part): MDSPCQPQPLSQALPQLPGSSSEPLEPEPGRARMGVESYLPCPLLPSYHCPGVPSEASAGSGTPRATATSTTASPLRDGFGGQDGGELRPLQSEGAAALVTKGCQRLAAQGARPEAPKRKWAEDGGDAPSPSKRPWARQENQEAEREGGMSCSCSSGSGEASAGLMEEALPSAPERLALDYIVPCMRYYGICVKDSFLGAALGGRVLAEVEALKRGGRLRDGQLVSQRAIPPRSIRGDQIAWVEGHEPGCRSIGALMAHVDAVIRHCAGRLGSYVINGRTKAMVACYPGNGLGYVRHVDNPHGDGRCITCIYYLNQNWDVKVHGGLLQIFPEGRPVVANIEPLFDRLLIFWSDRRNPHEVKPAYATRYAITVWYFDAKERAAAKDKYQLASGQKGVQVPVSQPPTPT

Regarding `O=C(O)CC1CC(=O)N(O)C1=O` (racemic), the pIC50 (commonly the IC50 on a negative log10 scale, so that one unit is a factor of ten) was 3.00.
